Numbered stars: 1 amine (or outer) side, 2 acyl side, 3 side chain; on linkers, the order of the positions; unused ones are H or OH. Bridge positions count the residues as written; N and C are the ends. Square brackets hold non-standard residues; d marks the D form. Peptide text beside a SMILES is read from it. X1 = CC1CC(C2=NC(C(=O)[*:2])CS2)N1[*:1]; NMeV = CN[CH](C(=O)O)C(C)C; X2 = O=C(C(O)CO[*:2])[*:1]; Pip = O=C(O)[CH]1CCCCN1; Dhb = C/C=C(\N)C(=O)O
Assays:
[1] = test system: interferon alpha activity in MXRage cells; assay: Cell-based virus-free type I interferon activity test, Mx-RAGE fibroblasts with eGFP reporter, flow cytometry, with interferon alpha; parameters: species or system murine
[2] = test system: human cervical carcinoma derived cell line WISH; assay: Antiproliferative activity on WISH cells; assay type: cell-based; conditions: in the presence of rhIFN-α2b, FIG. 7
Procedure: FIG. 7: The antiproliferative effect of vioprolide A. The proliferation of WISH cells was tested at different concentrations of vioprolide A alone (grey) and in the present of IFN-α2b (black).
Further, the antiproliferative effect of vioprolide A has been determined. Using standard assays, the antiproliferative activity was evaluated with human cervical carcinoma derived cell line WISH.

[3] = test system: Herpes simplex virus strain 1 (HSV-1, dsDNA); assay: Antiviral effect on HSV-1, cytopathic effect on Vero cells; assay type: cell-based; conditions: Vero cells infected with 10^4 PFU/ml HSV-1, different concentrations of vioprolide A alone, FIG. 6
[4] = test system: Vesicular stomalitis virus (VSV, ssRNA negative); assay type: cell-based; conditions: MDBK cells, rhIFN-α2b alone and with 31 and 167 ng/ml vioprolide A, FIG. 5
[5] = test system: interferon beta activity in MXRage cells; assay: Cell-based virus-free type I interferon activity test, Mx-RAGE fibroblasts with eGFP reporter, flow cytometry, with interferon beta; parameters: species or system murine; conditions: interferon beta standard curve, vioprolide A 50 ng/ml, FIG. 4 right panel

`C/C=C1\NC(=O)C2CSC(=N2)C2CC(C)N2C(=O)C(CC(C)C)NC(=O)C(C)NC(=O)C(O)COC(=O)C(C(C)C)N(C)C(=O)C(C(C)O)NC(=O)C2CCCCN2C1=O` (stereo not shown) [vioprolide A] (AL[X1][Dhb][Pip]T[NMeV]; linker N-C via X2; configuration not given here) was tested, and the “increase of GFP positive cells” value ([1]; interferon alpha standard curve, vioprolide A 50 ng/ml, FIG. 4 left panel) was “remarkable increase”, the “reduction of the amount of interferon alpha to obtain the same percent of GFP positive cells” value ([1]; vioprolide A 50 ng/ml, FIG. 4 left panel) was “about 10 fold” and the “increase of GFP positive cells with vioprolide plus interferon type I compared to interferon type I alone” value ([1]; vioprolide A 0.2 to 400 ng/ml, serial two-fold dilutions, FIG. 3) was ≤ 4 fold. The “effect on cell growth inhibition” value [2] was “additive effect”, the “anti-viral activity on HSV-1 (cytopathic effect)” value [3] was “anti-viral activity” and the “anti-viral activity of IFN on VSV (cytopathic effect)” value [4] was “able to enhance the anti-viral activity of IFN on VSV”. The “increase of GFP positive cells” value [5] was “remarkable increase”.

— US20100028298A1 (priority 2006, published 2010)
